Consider 24 compounds from patent US20260355182A1, “ISOQUINOLINE DERIVATIVE, SYNTHESIS METHOD THEREFOR, AND USE THEREOF” (Harbin Gloria Pharmaceuticals Co., Ltd., priority 2023, published 2026).

One series deals with T1, Pgk1 (Homo sapiens, UniProt P00558).
T1 sequence (P00558 1-417): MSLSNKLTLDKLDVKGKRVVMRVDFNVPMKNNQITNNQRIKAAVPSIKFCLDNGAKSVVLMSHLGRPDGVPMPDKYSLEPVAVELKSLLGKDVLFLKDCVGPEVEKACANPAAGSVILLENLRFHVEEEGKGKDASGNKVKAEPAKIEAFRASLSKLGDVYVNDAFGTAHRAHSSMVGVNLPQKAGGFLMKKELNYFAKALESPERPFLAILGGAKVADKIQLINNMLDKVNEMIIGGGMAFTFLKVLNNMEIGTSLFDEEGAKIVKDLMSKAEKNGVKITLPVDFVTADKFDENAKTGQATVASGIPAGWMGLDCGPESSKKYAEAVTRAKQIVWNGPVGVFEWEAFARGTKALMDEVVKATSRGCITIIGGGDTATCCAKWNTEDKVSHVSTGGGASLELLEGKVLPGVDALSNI
Kind of series: Affinity for Pgk1 protein (Biacore T200). To be noted: drug alone; amount of small-molecule drug bound. Format: binding. Here is the method: Example 30: Determination of Affinities of Compounds for Pgk1 Protein
Purified Pgk1 protein (with a concentration of 1 mg/mL) was immobilized on a Biacore T200 chip. […] The obtained curves can calculate parameters such as affinity and Rmax.

Series [1] has as its system MPTP-induced Parkinson's disease model mice. Nature of the series: MPTP-induced mouse model of Parkinson's disease, rotarod and tyrosine hydroxylase Western blot. It counts as in vivo. As for the experimental part:
Male mice aged 3 months were used and fed normally. The acute MPTP modeling method (see Sonsalla P K, Heikkila R E. The influence of dose and dosing interval on MPTP-induced dopaminergic neurotoxicity in mice. Eur J Pharmacol 1986; 129(3): 339-45.) was employed. MPTP was injected intraperitoneally four times in total at a dose of 20 mg/kg body weight per injection, with a 2-hour interval between each injection. MPTP was dissolved in normal saline, and the control group received an equal dose of normal saline. T2 was dissolved in DMSO and diluted with normal saline to the desired concentration. Accordingly, equal doses of DMSO and normal saline were administered during the treatment. On the day of MPTP model establishment, mice were administered either T2 (treatment group) or DMSO (control group). Subsequently, mice in all groups were administered the corresponding drugs daily. Mouse behavior was tested using a rotarod (E103, UGO BASILE). First, mice were pre-trained for two consecutive days at a constant speed of 15 revolutions per minute (15 rpm) until they could stay on the rod for more than 60 seconds. On day 7 after MPTP injection, mice were tested on the rotarod in an accelerating mode (2 rpm to 45 rpm). The latency to fall from the rotarod was recorded, and the behavior was monitored by a camera. After the experiment, the mice were sacrificed, and the striatal brain tissue was harvested for Western blot assay. Tyrosine hydroxylase (TH) is a protein specifically expressed in dopaminergic neurons. Therefore, whether dopaminergic neurons were damaged can be determined by Western blot assay using an anti-TH antibody.

A further series concerns SK-N-SH cells. Nature of the series: Effects of compounds on cellular ATP levels (Promega ATP assay). To be noted: 1 μM, 48 hours, 5% O2; untreated = 1. It counts as cell-based, human. As for the experimental part: Effects of compounds on cellular ATP levels.
Human Neuroblastoma Cell Line (SK-N-SH) is a human-derived neuroblastoma cell line. SK-N-SH cells were seeded in a 6-well plate at a density of 6×10^4 cells per well. The cells were cultured for 12 hours under 5% O2. Various drugs at a concentration of 1 μM were added. After 48 hours, the cells were harvested. Cellular ATP levels were measured using the Promega ATP assay kit. The experiment was repeated 6 times to 10 times. The experimental results were illustrated in FIG. 1. […] T1 to T11 were the experimental groups.

Series [2] has as its system phosphoglycerate kinase 1 (Pgk1). Conditions: previous studies; cited from earlier work.
Another series deals with al adrenergic receptor. Conditions: cited from earlier work.
Another series has as its system patients. To be noted: cited from earlier work.
A further series relates to glucose metabolism. Conditions: human, in vivo; cited from earlier work.
The next series deals with diabetic patients. To be noted: cited from earlier work.
The subject of series [3] is db/db mice. Nature of the series: Acute glucose-response assay in non-fasted db/db mice. To be noted: s.c., 2 h; TZ 0.5, liraglutide 0.6, T6 0.5 mg/Kg. It counts as in vivo. Here is the method:
The db/db mice were used to evaluate the glucose-lowering activity of compound T6 in comparison with reference metabolic agents (TZ 0.5 mg/Kg, liraglutide 0.6 mg/Kg, T6 0.5 mg/Kg). In FIG. 15, A) for the acute glucose-response assay, drugs were administered to non-fasted db/db mice. Immediately after drug administration (s. c.), mice were deprived of food and water, and blood glucose levels were measured from tail blood samples 2 h later. The relative percentage change in blood glucose was calculated by comparing glucose levels before and after treatment in the same animal. […] HbA1c levels were then measured using a glycated hemoglobin A1c enzyme-linked immunosorbent assay, also referred to as a mouse HbA1c ELISA assay. […] Data are presented as mean±error bars, with individual circles representing individual animals. Statistical significance is indicated as P<0.001 (**) and P<0.0001 (***).

Series [4] relates to db/db mice. Nature of the series: Hypoglycemic effect in diabetic model db/db mice, intraperitoneal. It counts as in vivo. To be noted: 0.6 mg/Kg i.p., 4 hours. As for the experimental part: Gene knockout db/db mice are a classic model of hyperglycemia and obesity. Under normal feeding conditions, mice aged 3 months or older developed hyperglycemia and obesity. After the mice were provided with only drinking water (fasted) for 6 hours, blood was collected from the tail of the mice to measure blood glucose values. Subsequently, different drugs, including saline (control), liraglutide at 0.6 mg/Kg, low-concentration T6 (T6 low, 0.1 mg/Kg), and high-concentration T6 (T6 high, 0.5 mg/Kg), were injected intraperitoneally. 4 hours later, blood was collected from the tail of the mice to measure the blood glucose levels. Each group consisted of 6 mice. Blood glucose levels before administration (Vbefore) and after administration (Vafter) were obtained for each mouse. The effect of the drug on blood glucose (%) was calculated as follows:
(Vbefore−Vafter)×100/Vbefore.

Another series deals with rats. To be noted: combined administration of terazosin and propranolol; cited from earlier work.
The subject of series [5] is Parkinson's disease and related diseases. To be noted: long-term use; cited from earlier work.

As for `Nc1ncnc2c1ncn2[C@@H]1O[C@H](COP(=O)(O)OP(=O)(O)O)[C@@H](O)[C@H]1O` [ADP, reference compound], on Pgk1, the Rmax is 35 RU. On the same count and under the same terms, to `Nc1nc(N2CCN(C(=O)[C@H]3CCCO3)CC2)cc2cc3c(cc12)OCO3` [Compound T1] belongs 116 RU.

Turning to `Nc1nc(N2CCN(C(=O)[C@@H]3CCCO3)CC2)cc2cc3c(cc12)OCO3` [Compound T2], the Rmax on Pgk1 amounted to 122 RU. Also, in series [1] (T2 0.1 mg/Kg, striatum, Western blot), the “Tyrosine hydroxylase level / dopaminergic neurons” value is on record as “exerted a protective effect on dopaminergic neurons”. The “Motor ability (rotarod)” value in [1] (T2 0.1, 0.3 and 1 mg/Kg, day 7 after MPTP) was “exerted protective effects”. For `CC1Oc2cc3cc(N4CCN(C(=O)[C@H]5CCCO5)CC4)nc(N)c3cc2O1` (stereo partly drawn) [Compound T3], the Rmax at Pgk1 is 93 RU. Same read-out and setting: to `CC1(C)Oc2cc3cc(N4CCN(C(=O)[C@H]5CCCO5)CC4)nc(N)c3cc2O1` [Compound T4] belongs 75 RU. On the same count and under the same terms, the value for `Nc1nc(N2CCN(C(=O)[C@H]3CCCO3)CC2)cc2cc3c(cc12)CCO3` [Compound T5] was 86 RU; that for `Nc1nc(N2CCN(C(=O)C3CCCC3)CC2)cc2cc3c(cc12)OCO3` [Compound T7] was 159 RU. Still for that read-out and setting: to `Nc1nc(N2CCN(C(=O)[C@H]3CCCN3)CC2)cc2cc3c(cc12)OCO3` [Compound T8] belongs 87 RU; to `Nc1nc(N2CCN(C(=O)[C@@H]3CCCN3)CC2)cc2cc3c(cc12)OCO3` [Compound T9], 87 RU.

As to `Nc1nc(N2CCN(C(=O)[C@H]3CCCO3)CC2)cc2cc3c(cc12)OCCO3` [Compound T10], the Rmax entry on Pgk1 is given as “None”. The “Activity in increasing cellular ATP” value with SK-N-SH cells is reported as “no such activity of increasing cellular ATP”. On the same counts, the results for `Nc1nc(N2CCN(C(=O)c3ccco3)CC2)cc2cc3c(cc12)OCO3` [Compound T11] are “None” and “no such activity of increasing cellular ATP”.

Consider `COc1cc2cc(N3CCN(C(=O)C4CCCO4)CC3)nc(N)c2cc1OC` (stereo not drawn) [TZ-md], for which, in [2], the “Binding to / activation of Pgk1” value was “still retains the effect of activating Pgk1”. For the same compound, the “Inhibition of the al adrenergic receptor” value with al adrenergic receptor is “does not inhibit the al adrenergic receptor”. The “Reduction of affinity for the al adrenergic receptor” value in the series with al adrenergic receptor (substitution of quinazoline nitrogen by carbon, vs terazosin) was “more than 1000 fold”.

Turning to `COc1cc2nc(N(C)CCCNC(=O)C3CCCO3)nc(N)c2cc1OC` (stereo not drawn) [alfuzosin], the Side effects entry with patients was “intraoperative floppy iris syndrome (IFIS), hypotension, fatigue, dizziness, syncope, and blurred vision”. As for `COC1=C(OC)C(=O)C(C/C=C(\C)CC/C=C(\C)CC/C=C(\C)CC/C=C(\C)CC/C=C(\C)CC/C=C(\C)CC/C=C(\C)CC/C=C(\C)CC/C=C(\C)CCC=C(C)C)=C(C)C1=O` [coenzyme Q10], the “Clinical efficacy on glucose metabolism” value with glucose metabolism is listed as “either no effect or clinical efficacy in only a small subset of the population”.

Turning to `CN(CC(=O)O)C(=N)N` [creatine], in the series with glucose metabolism, the “Clinical efficacy on glucose metabolism” value was “either no effect or clinical efficacy in only a small subset of the population”.

On to `COc1cc2nc(N3CCN(C(=O)C4COc5ccccc5O4)CC3)nc(N)c2cc1OC` (stereo not drawn) [doxazosin], for which the “Blood glucose and lipid levels” value in the series with diabetic patients is “efficacy is extremely limited or ineffective”. Moreover, in the series on patients, the Side effects entry was “intraoperative floppy iris syndrome (IFIS), hypotension, fatigue, dizziness, syncope, and blurred vision”. On to `CCCCCCCCCCCCCCCC(=O)N[C@@H](CCC(=O)NCCCC[C@H](NC(=O)[C@H](C)NC(=O)[C@H](C)NC(=O)[C@H](CCC(N)=O)NC(=O)CNC(=O)[C@H](CCC(=O)O)NC(=O)[C@H](CC(C)C)NC(=O)[C@H](Cc1ccc(O)cc1)NC(=O)[C@H](CO)NC(=O)[C@H](CO)NC(=O)[C@@H](NC(=O)[C@H](CC(=O)O)NC(=O)[C@H](CO)NC(=O)[C@@H](NC(=O)[C@H](Cc1ccccc1)NC(=O)[C@@H](NC(=O)CNC(=O)[C@H](CCC(=O)O)NC(=O)[C@H](C)NC(=O)[C@@H](N)Cc1cnc[nH]1)[C@@H](C)O)[C@@H](C)O)C(C)C)C(=O)N[C@@H](CCC(=O)O)C(=O)N[C@@H](Cc1ccccc1)C(=O)N[C@H](C(=O)N[C@@H](C)C(=O)N[C@@H](Cc1c[nH]c2ccccc12)C(=O)N[C@@H](CC(C)C)C(=O)N[C@H](C(=O)N[C@@H](CCCNC(=N)N)C(=O)NCC(=O)N[C@@H](CCCNC(=N)N)C(=O)NCC(=O)O)C(C)C)[C@@H](C)CC)C(=O)O` [liraglutide, reference compound], for which the “Acute change in blood glucose” value in the series on db/db mice [3] is recorded as “marked reduction in blood glucose”. Also, in the series with db/db mice [4], the “Hypoglycemic effect (liraglutide)” value was “optimal hypoglycemic effect”. For `CN(C)C(=N)N=C(N)N` [metformin, reference compound], in the series on glucose metabolism, the “Clinical efficacy on glucose metabolism” value is listed as “either no effect or clinical efficacy in only a small subset of the population”. Regarding `CC(C)NCC(O)COc1cccc2ccccc12` (stereo not drawn) [propranolol], the “Blood glucose in rats” value in the series with rats is listed as “did not affect blood glucose in rats”. As for `CO[C@H]1C[C@@H]2CC[C@@H](C)[C@@](O)(O2)C(=O)C(=O)N2CCCC[C@H]2C(=O)O[C@H]([C@H](C)C[C@@H]2CC[C@@H](O)[C@H](OC)C2)CC(=O)[C@H](C)/C=C(\C)[C@@H](O)[C@@H](OC)C(=O)[C@H](C)C[C@H](C)/C=C/C=C/C=C/1C` [rapamycin, reference compound], in the series with glucose metabolism, the “Clinical efficacy on glucose metabolism” value is given as “either no effect or clinical efficacy in only a small subset of the population”. Take `Oc1ccc(C=Cc2cc(O)cc(O)c2)cc1` [resveratrol, reference compound]: in the series on glucose metabolism, the “Clinical efficacy on glucose metabolism” value is recorded as “either no effect or clinical efficacy in only a small subset of the population”. In the case of `CCOc1ccccc1OCCN[C@H](C)Cc1ccc(OC)c(S(N)(=O)=O)c1` [tamsulosin], the “Effect on incidence of Parkinson's disease and related diseases” value in series [5] is listed as “do not exhibit similar effects”. Further, in the series on patients, the Side effects result is “intraoperative floppy iris syndrome (IFIS), hypotension, fatigue, dizziness, syncope, and blurred vision”.

As to `O=C(O)c1cccnc1` [vitamin B3], the “Clinical efficacy on glucose metabolism” value in the series on glucose metabolism is listed as “either no effect or clinical efficacy in only a small subset of the population”. insulin: the “Clinical efficacy on glucose metabolism” value with glucose metabolism was “either no effect or clinical efficacy in only a small subset of the population”.
